Laboratory results taken from patent US4308210A, “Nanaomycin B and therapeutic compositions containing same” (The Kitasato Institute, priority 1976, dated 1981).
Values after ≈ are worked out from the molar mass of the structure shown.

Columns and labels:
[1] = system: Trichophyton pedis 804; assay: Antimicrobial spectrum, MIC, potato agar; type: cell-based; settings: Trichophyton pedis, 804, 96 h; potato agar (pH 6.4, 4 days, 27° C.)
[2] = system: Mycoplasma iners; assay: Antimicrobial spectrum, MIC, PPLO agar; type: cell-based; settings: Mycoplasmopsis iners, 192 h; Hokken PPLO agar (pH 7.8, 8 days, 37° C.)
Protocol: (§1) H Hokken PPLO agar (pH 7.8, 8 days, 37° C.)
(§2) MIC Minimal inhibitory concentration

[3] = system: Mycoplasma gallinarum; assay: Antimicrobial spectrum, MIC, PPLO agar; type: cell-based; settings: Mycoplasmopsis gallinarum, 192 h, Hokken PPLO agar (pH 7.8, 8 days, 37° C.)
Protocol: as §1, §2

[4] = system: Trichophyton schoenleini; assay: Antimicrobial spectrum, MIC, potato agar; type: cell-based; settings: 96 h, potato agar (pH 6.4, 4 days, 27° C.)
[5] = system: Trichophyton mentagrophytes; assay: Antimicrobial spectrum, MIC, potato agar; type: cell-based; settings: 96 h, potato agar (pH 6.4, 4 days, 27° C.)
[6] = system: Trichophyton verrucosum; assay: Treatment of dermatomycosis of cattle caused by mass infection; type: in vivo; set-up: key: +++: complete removal of scales and recovered; ++: a little scales remained; +: removal of a part of scales; -: no removal of scale and no recovery
Protocol: When dermatomycosis of cattle caused by mass infection of Trichophyton verrucosum is treated with nanaomycin B, nanaomycin B is dissolved or suspended in a suitable carrier, for example, olive oil, and is coated on the affected part directly with or without removal of the scales. […] The results obtained by coating nanaomycin B once and by twice coatings (the second coating is carried out a week after the first coating) are shown in tables 2 and 3, respectively.

[7] = system: Gram-positive bacteria such as, for example Staphylococcus aureus; assay: Growth inhibition of Gram-positive bacteria (text summary of Table 1); type: cell-based
[8] = system: Trichophyton interdigitale; assay: Antifungal activity, agar dilution method; type: cell-based; settings: Trichophyton interdigitale, 96 h, potato agar, pH 6.4, 27° C., 4 days, read-out: Minimal Inhibitory Con.
Protocol: (§3) Minimal inhibitory concentration is assayed by agar dilution method
(§4) (potato agar, pH 6.4, 27° C., 4 days)

[9] = system: Trichophyton schoenleini; assay: Antifungal activity, agar dilution method; type: cell-based; settings: Trichophyton, 96 h, potato agar, pH 6.4, 27° C., 4 days, read-out: Minimal Inhibitory Con.
Protocol: as §3, §4

[10] = system: Aspergillus fumigatus; assay: Antifungal activity, agar dilution method; type: cell-based; settings: Aspergillus fumigatus, 96 h, potato agar, pH 6.4, 27° C., 4 days, read-out: Minimal Inhibitory Con.
Protocol: as §3, §4

[11] = system: Microsporum gypseum; assay: Antifungal activity, agar dilution method; type: cell-based; settings: Nannizzia gypsea, 96 h, potato agar, pH 6.4, 27° C., 4 days, read-out: Minimal Inhibitory Con.
Protocol: as §3, §4

[12] = system: Trichophyton ferrugineum; assay: Antifungal activity, agar dilution method; type: cell-based; settings: Microsporum ferrugineum, 96 h, potato agar, pH 6.4, 27° C., 4 days, read-out: Minimal Inhibitory Con.
Protocol: as §3, §4

[13] = system: Aspergillus niger; assay: Antifungal activity, agar dilution method; type: cell-based; settings: Aspergillus niger, 96 h, potato agar, pH 6.4, 27° C., 4 days, read-out: Minimal Inhibitory Con.
Protocol: as §3, §4

[14] = system: Trichophyton rubrum; assay: Antifungal activity, agar dilution method; type: cell-based; settings: Trichophyton rubrum, 96 h, potato agar, pH 6.4, 27° C., 4 days, read-out: Minimal Inhibitory Con.
Protocol: as §3, §4

[15] = system: Candida albicans; assay: Antifungal activity, agar dilution method; type: cell-based; settings: Candida albicans, 96 h, potato agar, pH 6.4, 27° C., 4 days, read-out: Minimal Inhibitory Con.
Protocol: as §3, §4

[16] = system: Trichophyton asteroides; assay: Antifungal activity, agar dilution method; type: cell-based; settings: Trichophyton, 96 h, potato agar, pH 6.4, 27° C., 4 days, read-out: Minimal Inhibitory Con.
Protocol: as §3, §4

[17] = system: Saccharomyces sake; assay: Antifungal activity, agar dilution method; type: cell-based; settings: Saccharomyces, 96 h, potato agar, pH 6.4, 27° C., 4 days, read-out: Minimal Inhibitory Con.
Protocol: as §3, §4

[18] = system: Trichophyton violaceum; assay: Antifungal activity, agar dilution method; type: cell-based; settings: Trichophyton violaceum, 96 h, potato agar, pH 6.4, 27° C., 4 days, read-out: Minimal Inhibitory Con.
Protocol: as §3, §4

[19] = system: Mycoplasma pneumonia; assay: Antimicrobial spectrum, MIC, PPLO agar; type: cell-based; settings: 192 h, Eiken PPLO agar (pH 7.8, 8 days, 37° C.)
Protocol: E Eiken PPLO agar (pH 7.8, 8 days, 37° C.)
as §2

[20] = system: Piricularia oryzae; assay: microbe, parasite or virus in culture; type: cell-based; settings: 96 h, pH 6.4
[21] = system: Trichophyton interdigitale; assay: Antimicrobial spectrum, MIC, potato agar; type: cell-based; settings: 96 h, potato agar (pH 6.4, 4 days, 27° C.)
[22] = system: Staphylococcus aureus FDA 209P; assay: Antimicrobial spectrum, MIC, nutrient agar; type: cell-based; settings: FDA209P, 48 h, nutrient agar (pH 7.0, 2 days, 37° C.)
[23] = coating once, I direct coating on affected part, 0.1 mg/ml
[24] = coating once, I direct coating on affected part, 1 mg/ml
[25] = coating once, I direct coating on affected part, 10 mg/ml
[26] = coating once, II coating after removing the scales, 0.1 mg/ml
[27] = coating once, II coating after removing the scales, 1 mg/ml
[28] = coating once, II coating after removing the scales, 10 mg/ml
[29] = twice coatings (second a week after the first), I direct coating on affected part, 0.1 mg/ml
[30] = twice coatings (second a week after the first), I direct coating on affected part, 1 mg/ml
[31] = twice coatings (second a week after the first), I direct coating on affected part, 10 mg/ml
[32] = twice coatings (second a week after the first), II coating after removing the scales, 0.1 mg/ml
[33] = twice coatings (second a week after the first), II coating after removing the scales, 1 mg/ml
[34] = twice coatings (second a week after the first), II coating after removing the scales, 10 mg/ml

CC1OC(CC(=O)O)CC2C(=O)c3cccc(O)c3C(=O)C12O (stereo not shown) [Nanaomycin B]
MIC [1]: 3.1 µg/mL (≈ 9.68 µM)
MIC [2]: 3.12 µg/mL (≈ 9.74 µM)
MIC [3]: 3.12 µg/mL (≈ 9.74 µM)
MIC [4]: 3.1 µg/mL (≈ 9.68 µM)
MIC [5]: 25 µg/mL (≈ 78.1 µM)
Result after 1 week [6, 23]: ++
Result after 2 weeks [6, 23]: ++
Result after 3 weeks [6, 23]: +++
Result after 4 weeks [6, 23]: +++
Result after 1 week [6, 24]: +++
Result after 2 weeks [6, 24]: +++
Result after 3 weeks [6, 24]: +++
Result after 4 weeks [6, 24]: +++
Result after 1 week [6, 25]: +++
Result after 2 weeks [6, 25]: +++
Result after 3 weeks [6, 25]: +++
Result after 4 weeks [6, 25]: +++
Result after 1 week [6, 26]: +++
Result after 2 weeks [6, 26]: +++
Result after 3 weeks [6, 26]: +++
Result after 4 weeks [6, 26]: +++
Result after 1 week [6, 27]: +++
Result after 2 weeks [6, 27]: +++
Result after 3 weeks [6, 27]: +++
Result after 4 weeks [6, 27]: +++
Result after 1 week [6, 28]: +++
Result after 2 weeks [6, 28]: +++
Result after 3 weeks [6, 28]: +++
Result after 4 weeks [6, 28]: +++
Result after 1 week [6, 29]: ++
Result after 2 weeks [6, 29]: +++
Result after 3 weeks [6, 29]: +++
Result after 4 weeks [6, 29]: +++
Result after 1 week [6, 30]: ++
Result after 2 weeks [6, 30]: ++
Result after 3 weeks [6, 30]: +++
Result after 4 weeks [6, 30]: +++
Result after 1 week [6, 31]: +++
Result after 2 weeks [6, 31]: +++
Result after 3 weeks [6, 31]: +++
Result after 4 weeks [6, 31]: +++
Result after 1 week [6, 32]: +++
Result after 2 weeks [6, 32]: +++
Result after 3 weeks [6, 32]: +++
Result after 4 weeks [6, 32]: +++
Result after 1 week [6, 33]: +++
Result after 2 weeks [6, 33]: +++
Result after 3 weeks [6, 33]: +++
Result after 4 weeks [6, 33]: +++
Result after 1 week [6, 34]: +++
Result after 2 weeks [6, 34]: +++
Result after 3 weeks [6, 34]: +++
Result after 4 weeks [6, 34]: +++
MIC ([7]; Staphylococcus aureus, summary of Table 1, read-out: growth inhibited at a concentration): 2 to 8 µg/mL (≈ 6.24 to 25 µM)
activity on Gram-positive bacteria ([7]; in words): active
MIC [8]: 12.5 µg/mL (≈ 39 µM)
MIC [9]: 0.4 µg/mL (≈ 1.25 µM)
MIC [10]: 50 µg/mL (≈ 156 µM)
MIC [11]: 12.5 µg/mL (≈ 39 µM)
MIC [12]: 6.3 µg/mL (≈ 19.7 µM)
MIC [13]: > 100 µg/mL
MIC [14]: 6.3 µg/mL (≈ 19.7 µM)
MIC [15]: > 100 µg/mL
MIC [16]: 12.5 µg/mL (≈ 39 µM)
MIC [17]: > 100 µg/mL
MIC [18]: 6.3 µg/mL (≈ 19.7 µM)
MIC [19]: 0.05 µg/mL (≈ 0.156 µM)
MIC [20]: 15.6 µg/mL (≈ 48.7 µM)
MIC [21]: 12.5 µg/mL (≈ 39 µM)
MIC [22]: 3.9 µg/mL (≈ 12.2 µM)
